Source: US20120083522A1, “MODULATION OF INFLAMMATORY RESPONSES BY FACTOR XI” (Isis Pharmaceuitcals, inc., priority 2009, published 2012)
In the oligonucleotide strings, read from the 5' end, every base follows the letter of its sugar. An asterisk marks phosphorothioate; unmarked linkages are phosphodiester. Other units and linkages are bracketed, terminal groups are in braces. A string of capitals states the bases alone. e = 2'-O-(2-methoxyethyl) (MOE); [5mC] = 5-methylcytosine; d = 2'-deoxy (DNA)

Tested on: human Factor XI mRNA
Test: Dose-dependent antisense inhibition in HepG2 cells, lipofectin (Example 2)
Type: cell-based
Conditions: 9.375 nM, approximately 16 hours
Procedure: Cells were plated at a density of 10,000 cells per well and transfected using lipofectin reagent with 9.375 nM, 18.75 nM, 37.5 nM, 75 nM, and 150 nM concentrations of antisense oligonucleotide, as specified in Table 3. After a treatment period of approximately 16 hours, RNA was isolated from the cells and Factor XI mRNA levels were measured by quantitative real-time PCR. Human Factor XI primer probe set RTS 2966 (forward sequence: […], incorporated herein as SEQ ID NO: 3; reverse sequence: […], incorporated herein as SEQ ID NO: 4; probe sequence: TTGTCTACTGAAGCACACCCAAACAGGGAX, wherein X is the fluorophore, incorporated herein as SEQ ID NO: 5) was used to measure mRNA levels. Factor XI mRNA levels were adjusted according to total RNA content, as measured by RIBOGREEN®. Results are presented as percent inhibition of Factor XI, relative to untreated control cells.

Row | Substance | percent inhibition of Factor XI [%]
1 | 413469 (antisense eT*eG*e[5mC]*e[5mC]*e[5mC]*dT*dT*d[5mC]*dA*dT*dG*dT*d[5mC]*dT*dA*eG*eG*eT*e[5mC]*e[5mC]) [compound 413469] | 24
2 | 413467 (antisense eG*eG*eT*e[5mC]*e[5mC]*dA*d[5mC]*dA*dT*dA*dA*dA*dT*dG*dT*e[5mC]*eT*eT*eT*eG) [compound 413467] | 2

Same assay, conditions: 18.75 nM, approximately 16 hours

Row | Substance | percent inhibition of Factor XI [%]
3 | 413469 (antisense eT*eG*e[5mC]*e[5mC]*e[5mC]*dT*dT*d[5mC]*dA*dT*dG*dT*d[5mC]*dT*dA*eG*eG*eT*e[5mC]*e[5mC]) [compound 413469] | 33
4 | 413467 (antisense eG*eG*eT*e[5mC]*e[5mC]*dA*d[5mC]*dA*dT*dA*dA*dA*dT*dG*dT*e[5mC]*eT*eT*eT*eG) [compound 413467] | 35

Same assay, conditions: 37.5 nM, approximately 16 hours

Row | Substance | percent inhibition of Factor XI [%]
5 | 413469 (antisense eT*eG*e[5mC]*e[5mC]*e[5mC]*dT*dT*d[5mC]*dA*dT*dG*dT*d[5mC]*dT*dA*eG*eG*eT*e[5mC]*e[5mC]) [compound 413469] | 53
6 | 413467 (antisense eG*eG*eT*e[5mC]*e[5mC]*dA*d[5mC]*dA*dT*dA*dA*dA*dT*dG*dT*e[5mC]*eT*eT*eT*eG) [compound 413467] | 49

Same assay, conditions: 75 nM, approximately 16 hours

Row | Substance | percent inhibition of Factor XI [%]
7 | 413469 (antisense eT*eG*e[5mC]*e[5mC]*e[5mC]*dT*dT*d[5mC]*dA*dT*dG*dT*d[5mC]*dT*dA*eG*eG*eT*e[5mC]*e[5mC]) [compound 413469] | 70
8 | 413467 (antisense eG*eG*eT*e[5mC]*e[5mC]*dA*d[5mC]*dA*dT*dA*dA*dA*dT*dG*dT*e[5mC]*eT*eT*eT*eG) [compound 413467] | 61

Same assay, conditions: 150 nM, approximately 16 hours

Row | Substance | percent inhibition of Factor XI [%]
9 | 413469 (antisense eT*eG*e[5mC]*e[5mC]*e[5mC]*dT*dT*d[5mC]*dA*dT*dG*dT*d[5mC]*dT*dA*eG*eG*eT*e[5mC]*e[5mC]) [compound 413469] | 84
10 | 413467 (antisense eG*eG*eT*e[5mC]*e[5mC]*dA*d[5mC]*dA*dT*dA*dA*dA*dT*dG*dT*e[5mC]*eT*eT*eT*eG) [compound 413467] | 47

Tested on: human Factor XI mRNA
Test: Dose-dependent inhibition in HepG2 cells, electroporation (Example 4)
Type: cell-based
Conditions: 0.7 μM, 16 hours
Method in brief: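 HepG2 cells electroporated with 0.7, 2.2, 6.7 or 20 μM antisense gapmer and harvested after ~16 h. Factor XI mRNA quantified by qRT-PCR (primer probe set RTS 2966), normalised to total RNA (RIBOGREEN). Reported as percent inhibition versus untreated control cells.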

Row | Substance | percent inhibition of Factor XI mRNA, relative to untreated control cells [%]
11 | 413467 (antisense eG*eG*eT*e[5mC]*e[5mC]*dA*d[5mC]*dA*dT*dA*dA*dA*dT*dG*dT*e[5mC]*eT*eT*eT*eG) [compound 413467] | 5

Same assay, conditions: 2.2 μM, 16 hours

Row | Substance | percent inhibition of Factor XI mRNA, relative to untreated control cells [%]
12 | 413467 (antisense eG*eG*eT*e[5mC]*e[5mC]*dA*d[5mC]*dA*dT*dA*dA*dA*dT*dG*dT*e[5mC]*eT*eT*eT*eG) [compound 413467] | 31

Same assay, conditions: 6.7 μM, 16 hours

Row | Substance | percent inhibition of Factor XI mRNA, relative to untreated control cells [%]
13 | 413467 (antisense eG*eG*eT*e[5mC]*e[5mC]*dA*d[5mC]*dA*dT*dA*dA*dA*dT*dG*dT*e[5mC]*eT*eT*eT*eG) [compound 413467] | 65

Same assay, conditions: 20 μM, 16 hours

Row | Substance | percent inhibition of Factor XI mRNA, relative to untreated control cells [%]
14 | 413467 (antisense eG*eG*eT*e[5mC]*e[5mC]*dA*d[5mC]*dA*dT*dA*dA*dA*dT*dG*dT*e[5mC]*eT*eT*eT*eG) [compound 413467] | 89

Tested on: not listed separately
Test: Tolerability in Sprague-Dawley rats: hematology assays (Example 23)
Type: in vivo
Set-up: RBC / WBC / Neutrophil / Lymphocyte / Platelets: unit not given here
Conditions: blood

Row | Substance | RBC | WBC
15 | ISIS 416866: gapmer of Table 8 (antisense e[5mC]*eT*eG*eG*e[5mC]*dA*dG*d[5mC]*dG*dG*dA*d[5mC]*dG*dG*d[5mC]*eA*eT*eT*eG*eG) | 7.8 | 20
16 | ISIS 416860: gapmer of Table 8 (antisense e[5mC]*eG*eG*eA*e[5mC]*dG*dG*d[5mC]*dA*dT*dT*dG*dG*dT*dG*e[5mC]*eA*e[5mC]*eA*eG) | 7.8 | 17
17 | ISIS 416851: gapmer of Table 8 (antisense eG*eT*eG*e[5mC]*eA*d[5mC]*dA*dG*dT*dT*dT*d[5mC]*dT*dG*dG*e[5mC]*eA*eG*eG*e[5mC]) | 7.4 | 11

Tested on: human Factor XI mRNA
Test: Dose-dependent inhibition in HepG2 cells, lipofectin (Example 4)
Type: cell-based
Conditions: 9.375 nM, 16 hours
Method in brief: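 Read-out was percent inhibition of Factor XI mRNA relative to untreated controls, by qRT-PCR (RTS 2966) adjusted for RIBOGREEN-measured total RNA. Cells received antisense oligonucleotide at 9.375 to 75 nM (four levels) via lipofectin. Treatment lasted approximately 16 hours, with plating at 10,000 cells per well.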

Row | Substance | percent inhibition of Factor XI mRNA, relative to untreated control cells [%]
18 | 413467 (antisense eG*eG*eT*e[5mC]*e[5mC]*dA*d[5mC]*dA*dT*dA*dA*dA*dT*dG*dT*e[5mC]*eT*eT*eT*eG) [compound 413467] | 35

Same assay, conditions: 18.75 nM, 16 hours

Row | Substance | percent inhibition of Factor XI mRNA, relative to untreated control cells [%]
19 | 413467 (antisense eG*eG*eT*e[5mC]*e[5mC]*dA*d[5mC]*dA*dT*dA*dA*dA*dT*dG*dT*e[5mC]*eT*eT*eT*eG) [compound 413467] | 51

Same assay, conditions: 37.5 nM, 16 hours

Row | Substance | percent inhibition of Factor XI mRNA, relative to untreated control cells [%]
20 | 413467 (antisense eG*eG*eT*e[5mC]*e[5mC]*dA*d[5mC]*dA*dT*dA*dA*dA*dT*dG*dT*e[5mC]*eT*eT*eT*eG) [compound 413467] | 62

Same assay, conditions: 75 nM, 16 hours

Row | Substance | percent inhibition of Factor XI mRNA, relative to untreated control cells [%]
21 | 413467 (antisense eG*eG*eT*e[5mC]*e[5mC]*dA*d[5mC]*dA*dT*dA*dA*dA*dT*dG*dT*e[5mC]*eT*eT*eT*eG) [compound 413467] | 69
